Experiments:
[1] = tested on: the 16 anti-salinomycin monoclonal antibodies SAL02-SAL13 and SAL22-SAL25; assay: Competitive inhibition ELISA, result stated for the antibodies as a group; format: binding, mouse
Method: (§1) The supernatant culture fluid from the cloned hybridomas may also be screened to select for those producing antibodies having a high affinity for salinomycin. Affinity my be measured using a variety of well known techniques, such as ELISA, RIA or equilibrium dialysis using labelled salinomycin. […] In accordance with this embodiment, the antibody containing supernatant is added to a salinomycin coated solid substrate such as the wells of an assay plate, together with a range of concentrations of free salinomycin as a competitor. Following incubation and washing, bound antibody in the wells is determined in the same manner as the db-ELISA. Percent inhibition may be calculated as (1-B/BO)×100 where B is the OD of a well with a competitor and BO is the mean OD of the wells without competitor (control). […] However, for even greater accuracy, the affinity may be alternatively measured at 50% inhibition (IC50).
(§2) For the competitive inhibition ELISA, the wells of a 96-well microtiter plate were coated with 250 ng SAL-BSA and blocked with ovalbumin as previously described. Two hundred μL of a competitor (free salinomycin at 20-100 ng/100 μL) in assay buffer, were added to row 2 of an antigen-coated well. The remaining wells in that row received 100 μL of assay buffer. A 100 μL aliquot of competitor was withdrawn from row 2 and serially diluted across the microtiter plate into wells 3-10. Wells 11 and 12 received no competitor. […] Plates were incubated for 1-h at 37° C. and processed as described above in the db ELISA. Percent inhibition was calculated by the following method: (1-B/B0)×100where B=the OD of a well with a competitor and B0 =mean ODs of the wells without competitor (i.e. wells 11 and 12).
(§3) Antibody Characterization. The 16 monoclonal antibodies were further evaluated for their ability to distinguish between commonly used ionophoric coccidiostats. The competitive inhibition ELISA described supra was repeated with the ionophores salinomycin (SAL), narasin (NAR), lasalocid (LAS) and monensin (MON) as competitors.

[2] = tested on: anti-salinomycin monoclonal antibody SAL23 (IgG2a, kappa); assay: Competitive inhibition ELISA (SAL-BSA coated wells); format: binding, mouse; details: mean ± SD, n = 10 assays
Method: as §1, §2, §3

[3] = tested on: anti-salinomycin monoclonal antibody SAL13 (IgG2a, kappa); assay: as above; format: binding, mouse; details: mean ± SD, n = 10 assays
Method: as §1, §2, §3

[4] = tested on: anti-salinomycin monoclonal antibody SAL07 (IgG2a, kappa); assay: as above; format: binding, mouse; details: mean ± SD, n = 10 assays
Method: as §1, §2, §3

[5] = tested on: anti-salinomycin monoclonal antibody SAL09 (IgG2a, kappa); assay: as above; format: binding, mouse; details: mean ± SD, n = 10 assays
Method: as §1, §2, §3

[6] = tested on: anti-salinomycin monoclonal antibody SAL04 (IgG2a, kappa); assay: as above; format: binding, mouse; details: mean ± SD, n = 10 assays
Method: as §1, §2, §3

[7] = tested on: anti-salinomycin monoclonal antibody SAL11 (IgG2a, kappa); assay: as above; format: binding, mouse; details: mean ± SD, n = 10 assays
Method: as §1, §2, §3

[8] = tested on: anti-salinomycin monoclonal antibody SAL10 (IgG2a, kappa); assay: as above; format: binding, mouse; details: for Mean 50% Inhibition Value (IC50) of competitor: mean ± SD, n = 10 assays
Method: as §1, §2, §3

[9] = tested on: anti-salinomycin monoclonal antibody SAL03 (IgG2a, kappa); assay: as above; format: binding, mouse; details: mean ± SD, n = 10 assays
Method: as §1, §2, §3

[10] = tested on: anti-salinomycin monoclonal antibody SAL24 (IgG2a, kappa); assay: as above; format: binding, mouse; details: mean ± SD, n = 10 assays
Method: as §1, §2, §3

[11] = tested on: anti-salinomycin monoclonal antibody SAL12 (IgG2a, kappa); assay: as above; format: binding, mouse; details: mean ± SD, n = 10 assays
Method: as §1, §2, §3

[12] = tested on: anti-salinomycin monoclonal antibody SAL25 (IgG2a, kappa); assay: as above; format: binding, mouse; details: mean ± SD, n = 10 assays
Method: as §1, §2, §3

[13] = tested on: anti-salinomycin monoclonal antibody SAL05 (IgG2a, kappa); assay: as above; format: binding, mouse; details: for Mean 50% Inhibition Value (IC50) of competitor: mean ± SD, n = 10 assays
Method: as §1, §2, §3

[14] = tested on: anti-salinomycin monoclonal antibody SAL02 (IgG2a, kappa; hybridoma ATCC HB 11954); assay: as above; format: binding, mouse; details: mean ± SD, n = 10 assays
Method: as §1, §2, §3

[15] = tested on: anti-salinomycin monoclonal antibody SAL22 (IgG2a, kappa); assay: as above; format: binding, mouse; details: mean ± SD, n = 10 assays
Method: as §1, §2, §3

[16] = tested on: anti-salinomycin monoclonal antibody SAL08 (IgG2a, kappa); assay: as above; format: binding, mouse; details: mean ± SD, n = 10 assays
Method: as §1, §2, §3

[17] = tested on: anti-salinomycin monoclonal antibody SAL06 (IgG2a, kappa); assay: as above; format: binding, mouse; details: mean ± SD, n = 10 assays
Method: as §1, §2, §3

[18] = tested on: monoclonal antibodies to salinomycin of Miller et al. (immunogen linked through succinate at C-20); details: prior art antibodies; cited from earlier work
[19] = at or below 100 ng/well (10 ppm), Table I footnote
[20] = at or below 1000 ng/well, all 16 antibodies

CC[C@@H](C(=O)[C@@H](C)[C@@H](O)[C@H](C)CCc1ccc(C)c(O)c1C(=O)O)[C@H]1O[C@](CC)([C@H]2CC[C@](O)(CC)[C@H](C)O2)C[C@@H]1C [lasalocid]
inhibition of antigen-antibody binding by competitor [1, 19]: Neither Lasalocid or Monensin inhibited the antigenantibody binding | inhibition of antigen-antibody binding by competitor [1, 20]: no inhibition of antigen-antibody binding

CC[C@@]1([C@@H]2O[C@@H]([C@H]3O[C@@](O)(CO)[C@H](C)C[C@@H]3C)C[C@@H]2C)CC[C@H]([C@]2(C)CC[C@]3(C[C@H](O)[C@@H](C)[C@@H]([C@@H](C)[C@@H](OC)[C@H](C)C(=O)O)O3)O2)O1 [monensin]
inhibition of antigen-antibody binding by competitor [1, 19]: Neither Lasalocid or Monensin inhibited the antigenantibody binding | inhibition of antigen-antibody binding by competitor [1, 20]: no inhibition of antigen-antibody binding

CC[C@@H](C(=O)O)[C@@H]1O[C@@H]([C@@H](C)[C@H](O)[C@H](C)C(=O)[C@H](CC)[C@H]2O[C@]3(C=C[C@@H](O)[C@]4(CC[C@@](C)([C@H]5CC[C@](O)(CC)[C@H](C)O5)O4)O3)[C@H](C)C[C@@H]2C)[C@@H](C)C[C@@H]1C [narasin]
Mean 50% Inhibition Value (IC50) of competitor [2]: 0.99 ± 0.25 ng/well | Mean 50% Inhibition Value (IC50) of competitor [3]: 0.55 ± 0.20 ng/well | Mean 50% Inhibition Value (IC50) of competitor [4]: 0.93 ± 0.85 ng/well | Mean 50% Inhibition Value (IC50) of competitor [5]: 1.17 ± 0.27 ng/well | Mean 50% Inhibition Value (IC50) of competitor [6]: 0.34 ± 0.15 ng/well | Mean 50% Inhibition Value (IC50) of competitor [7]: 0.69 ± 0.28 ng/well | Mean 50% Inhibition Value (IC50) of competitor [8]: 1.18 ± 0.49 ng/well | Mean 50% Inhibition Value (IC50) of competitor [9]: 0.82 ± 0.58 ng/well | Mean 50% Inhibition Value (IC50) of competitor [10]: 0.98 ± 0.46 ng/well | Mean 50% Inhibition Value (IC50) of competitor [11]: 0.67 ± 0.19 ng/well | Mean 50% Inhibition Value (IC50) of competitor [12]: 0.68 ± 0.34 ng/well | Mean 50% Inhibition Value (IC50) of competitor [13]: 0.52 ± 0.62 ng/well | Mean 50% Inhibition Value (IC50) of competitor [14]: 0.97 ± 0.97 ng/well | Mean 50% Inhibition Value (IC50) of competitor [15]: 0.51 ± 0.09 ng/well | Mean 50% Inhibition Value (IC50) of competitor [16]: 1.09 ± 0.15 ng/well | Mean 50% Inhibition Value (IC50) of competitor [17]: 0.39 ± 0.15 ng/well

CC[C@@H](C(=O)[C@@H](C)[C@@H](O)[C@H](C)[C@@H]1O[C@@H]([C@@H](CC)C(=O)O)CC[C@@H]1C)[C@H]1O[C@]2(C=C[C@@H](O)[C@]3(CC[C@@](C)([C@H]4CC[C@](O)(CC)[C@H](C)O4)O3)O2)[C@H](C)C[C@@H]1C [salinomycin]
Mean 50% Inhibition Value (IC50) of competitor [2]: 0.92 ± 0.15 ng/well | Mean 50% Inhibition Value (IC50) of competitor [3]: 0.75 ± 0.49 ng/well | Mean 50% Inhibition Value (IC50) of competitor [4]: 1.44 ± 1.28 ng/well | Mean 50% Inhibition Value (IC50) of competitor [5]: 0.97 ± 0.28 ng/well | Mean 50% Inhibition Value (IC50) of competitor [6]: 0.35 ± 0.17 ng/well | Mean 50% Inhibition Value (IC50) of competitor [7]: 0.57 ± 0.25 ng/well | concentration that resulted in 20% inhibition (IC20) of control activity ([8]; free salinomycin as competitor): 0.793 ng | concentration that resulted in 50% inhibition IC50 ([8]; free salinomycin as competitor): 1.76 ng | Mean 50% Inhibition Value (IC50) of competitor [8]: 1.76 ± 0.29 ng/well | Mean 50% Inhibition Value (IC50) of competitor [9]: 0.78 ± 0.72 ng/well | Mean 50% Inhibition Value (IC50) of competitor [10]: 1.15 ± 0.45 ng/well | Mean 50% Inhibition Value (IC50) of competitor [11]: 0.49 ± 0.28 ng/well | Mean 50% Inhibition Value (IC50) of competitor [12]: 0.61 ± 0.18 ng/well | concentration that resulted in 20% inhibition (IC20) of control activity ([13]; free salinomycin as competitor): 0.174 ng | concentration that resulted in 50% inhibition IC50 ([13]; free salinomycin as competitor): 0.33 ng | Mean 50% Inhibition Value (IC50) of competitor [13]: 0.33 ± 0.10 ng/well | Mean 50% Inhibition Value (IC50) of competitor [14]: 0.62 ± 0.11 ng/well | Mean 50% Inhibition Value (IC50) of competitor [15]: 0.56 ± 0.23 ng/well | Mean 50% Inhibition Value (IC50) of competitor [16]: 0.60 ± 0.30 ng/well | Mean 50% Inhibition Value (IC50) of competitor [17]: 0.78 ± 0.62 ng/well | detection limit (reported) [18]: 50 ng | sensitivity (reported) [18]: 50 ng per well
